The target of the test is T1, recominbant human tryptase, beta, from lung (Homo sapiens, UniProt P20231).
T1 construct: purchased Promega or Enzo Life Sciences G5631 or BML-SE418
Briefly: Inhibition of tryptase activity by monomers and multimers (Boc-Gln-Ala-Arg-AMC fluorescence). In kind it is biochemical. The note with it: monomers against tryptase. How it is done:
Stock solutions of recominbant human tryptase, beta, from lung (Promega: catalog number G5631, or Enzo Life Sciences: catalog number BML-SE418) were made at 30 μM, in solution with 5 μM heparin sulfate and 1 M NaCl. Monomer tryptase inhibitor stock solutions were made at 50 mM in DMSO. Test substance plates were made at 1.2× the final concentration in assay buffer (50 mM HEPES, 150 mM NaCl, 100 μM EDTA, pH 7.4, 0.02% Tween-20). A final concentration of 1 nM tryptase was used. When required, test substances were diluted in water immediately before use in 10-fold serial dilutions. After the indicated incubation time, the test subtance-tryptase solution at 1.2× concentration, was diluted into assay buffer containing a final concentration of 200 μM N-tert-butoxycarbonyl-Gln-Ala-Arg-AMC HBr [AMC=7-amino-4-methylcoumarin] (Boc-Gln-Ala-Arg-AMC; Enzo Life Sciences: catalog number BML-P237) to a final volume of 50 μl in black opaque round bottom 96 well plates (Corning, catalog number 3792). The release of fluorescent AMC was immediately measured every 30 seconds over 15-30 minutes at an excitation wavelength of 367 nm, monitoring emission at 468 nm on a Spectramax M5 (Molecular Devices) microplate reader. The Softmax Pro (Molecular Devices) and Graphpad prism software were used to determine Vmax, and concentration-response curve IC50s, respectively.

[1] abbreviates: Table 5, read-out: Monomer IC50 range.
The mark [2] stands for this setting: read-out: IC50 range group of additional monomers (boronic acid, benzooxaborole, ligands).

pIC50: −log10 of the molar value. Where a name gives a salt, the structure may show the parent alone. Read-outs that look alike come from different tables or passages of the source.

Broadly, the pIC50 is the IC50 on a negative log10 scale, so that one unit is a factor of ten.

T1 sequence (P20231 31-275): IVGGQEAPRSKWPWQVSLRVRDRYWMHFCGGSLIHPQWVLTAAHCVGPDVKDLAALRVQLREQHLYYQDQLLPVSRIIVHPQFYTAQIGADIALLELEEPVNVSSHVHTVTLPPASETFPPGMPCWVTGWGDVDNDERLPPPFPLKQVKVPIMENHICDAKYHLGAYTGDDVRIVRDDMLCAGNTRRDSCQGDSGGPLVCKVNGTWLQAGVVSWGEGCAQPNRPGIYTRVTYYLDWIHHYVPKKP

Turning to `NCc1cccc(C2CCN(C(=O)c3cccc(NC(=O)C(=O)C4(O)CCC4)c3)CC2)c1` [T21, N-(3-(4-(3-(aminomethyl)phenyl)piperidine-1-carbonyl)phenyl)-2-(1-hydroxycyclobutyl)-2-oxoacetamide], the negative-log IC50 (pIC50) under setting [1] was 6.00 to 10.00.

For the compound `NCc1cccc(C2CCN(C(=O)c3cccc(OCC(=O)C4(O)CCC4)c3)CC2)c1` [T22, 2-(3-(4-(3-(aminomethyl)phenyl)piperidine-1-carbonyl)phenoxy)-1-(1-hydroxycyclobutyl)ethanone], under setting [1], the pIC50 was 6.00 to 10.00.

For `NCc1cccc(C2CCN(C(=O)/C=C/c3ccc(O)c(O)c3)CC2)c1` [T24, (E)-1-(4-(3-(aminomethyl)phenyl)piperidin-1-yl)-3-(3,4-dihydroxyphenyl)prop-2-en-1-one hydrochloride], the negative-log IC50 (pIC50) was 5.00 to 6.00 under setting [1] and 5.00 to 6.00 under setting [2].

For the compound `NCc1cccc(C2CCN(C(=O)CCc3ccc(O)c(O)c3)CC2)c1` [T24Dihydro, 1-(4-(3-(aminomethyl)phenyl)piperidin-1-yl)-3-(3,4-dihydroxyphenyl)propan-1-one (TFA salt)], the pIC50 under setting [2] was 5.00 to 6.00.

As for `COc1cc(/C=C/C(=O)N2CCC(c3cccc(CN)c3)CC2)ccc1O` [T24MON, (E)-1-(4-(3-(aminomethyl)phenyl)piperidin-1-yl)-3-(4-hydroxy-3-methoxyphenyl)prop-2-en-1-one], the pIC50 under setting [1] is 5.00 to 6.00.

Consider `NCc1cccc(C2CCN(C(=O)/C=C\c3ccc(O)c(O)c3)CC2)c1` [T24cis, (Z)-1-(4-(3-(aminomethyl)phenyl)piperidin-1-yl)-3-(3,4-dihydroxyphenyl)prop-2-en-1-one], for which the pIC50 was 5.00 to 6.00 under setting [1] and 5.00 to 6.00 under setting [2].

For `NCc1cccc(C2CCN(C(=O)c3cccc(N4C[C@@H](O)[C@@H](O)C4)c3)CC2)c1` [T25B, (4-(3-(aminomethyl)phenyl)piperidin-1-yl)(3-((3S,4R)-3,4-dihydroxypyrrolidin-1-yl)phenyl)methanone], the pIC50 under setting [1] is 6.00 to 10.00 and the pIC50 (entry marked (1:10), read-out: IC50 range group of additional monomers marked (1:10)) is 6.00 to 10.00.

Consider `NCc1cccc(C2CCN(C(=O)c3cccc(C(=O)N4C[C@@H](O)[C@H](O)C4)c3)CC2)c1` [T26diol cis, (4-(3-(aminomethyl)phenyl)piperidin-1-yl)(3-((3R,4R)-3,4-dihydroxypyrrolidine-1-carbonyl)phenyl)methanone], for which the negative-log IC50 (pIC50) runs as follows: under setting [1], 5.00 to 6.00; under setting [2], 5.00 to 6.00.

Turning to `NCc1cccc(C2CCN(C(=O)c3cccc(C(=O)N4C[C@@H](O)[C@@H](O)C4)c3)CC2)c1` [T26diol trans, (4-(3-(aminomethyl)phenyl)piperidin-1-yl)(3-((3S,4R)-3,4-dihydroxypyrrolidine-1-carbonyl)phenyl)methanone], the negative logarithm of the IC50 (pIC50) under setting [1] was 5.00 to 6.00 and the pIC50 under setting [2] was 5.00 to 6.00.

For the compound `NCc1ccc(F)c(C2CCN(C(=O)c3cccc4cc(O)c(O)cc34)CC2)c1` [T27F, (4-(5-(aminomethyl)-2-fluorophenyl)piperidin-1-yl)(6,7-dihydroxynaphthalen-1-yl)methanone], the pIC50 under setting [1] was 5.00 to 6.00 and the pIC50 under setting [2] was 5.00 to 6.00.

For the compound `NCc1cccc(C2CCN(C(=O)c3cccc(O)c3O)CC2)c1` [T28, (4-(3-(aminomethyl)phenyl)piperidin-1-yl)(2,3-dihydroxyphenyl)methanone], the pIC50 runs as follows: under setting [1], 5.00 to 6.00; under setting [2], 5.00 to 6.00.

For `NCc1cccc(C2CCN(C(=O)c3cccc(OCC(=O)N4C[C@@H](O)[C@@H](O)C4)c3)CC2)c1` [T29, 2-(3-(4-(3-(aminomethyl)phenyl)piperidine-1-carbonyl)phenoxy)-1-((3S,4R)-3,4-dihydroxypyrrolidin-1-yl)ethanone], under setting [1], the pIC50 was 5.00 to 6.00.

Regarding `NCc1cccc(C2CCN(C(=O)c3ccc(OCC(=O)N4C[C@@H](O)[C@@H](O)C4)cc3)CC2)c1` [T30, 2-(4-(4-(3-(aminomethyl)phenyl)piperidine-1-carbonyl)phenoxy)-1-((3S,4R)-3,4-dihydroxypyrrolidin-1-yl)ethanone], the negative logarithm of the IC50 (pIC50) was 5.00 to 6.00 under setting [1] and 5.00 to 6.00 under setting [2].

For the compound `NCc1cccc(C2CCN(C(=O)c3cc4cc(O)ccc4[nH]3)CC2)c1` [T31A, (4-(3-(aminomethyl)phenyl)piperidin-1-yl)(5-hydroxy-1H-indol-2-yl)methanone], the pIC50 under setting [1] was 6.00 to 10.00.

Consider `NCc1cccc(C2CCN(C(=O)c3cc4c(B(O)O)cccc4[nH]3)CC2)c1` [T32, 2-(4-(3-(aminomethyl)phenyl)piperidine-1-carbonyl)-1H-indol-4-ylboronic acid], for which the pIC50 by setting is: under setting [1], 5.00 to 6.00; under setting [2], 5.00 to 6.00.

For the compound `NCc1cccc(C2CCN(C(=O)/C=C/c3ccc(B(O)O)cc3)CC2)c1` [T33, (E)-4-(3-(4-(3-(aminomethyl)phenyl)piperidin-1-yl)-3-oxoprop-1-enyl)phenylboronic acid], the pIC50 by setting is: under setting [1], 5.00 to 6.00; under setting [2], 5.00 to 6.00.

Turning to `N=C(N)c1ccc2c(c1)C1(CCN(C(=O)/C=C/c3ccc(B(O)O)cc3)CC1)CO2` [T33SPAM, (E)-4-(3-(5-carbamimidoyl-2H-spiro[benzofuran-3,4′-piperidine]-1′-yl)-3-oxoprop-1-enyl)phenylboronic acid], the pIC50 under setting [2] is 5.00 to 6.00.

With `NCc1cccc(C2CCN(C(=O)/C=C/c3cccc(B(O)O)c3)CC2)c1` [T34, (E)-3-(3-(4-(3-(aminomethyl)phenyl)piperidin-1-yl)-3-oxoprop-1-enyl)phenylboronic acid], the pIC50 was 5.00 to 6.00 under setting [1] and 5.00 to 6.00 under setting [2].

Consider `NCc1cccc(C2CCN(C(=O)c3cccc(-c4cccc(B(O)O)c4)c3)CC2)c1` [T35, 3′-(4-(3-(aminomethyl)phenyl)piperidine-1-carbonyl)biphenyl-3-ylboronic acid], for which the pIC50 by setting is: under setting [1], 6.00 to 10.00; under setting [2], 6.00 to 10.00.

As to `NCc1ccc(F)c(C2CCN(C(=O)c3cccc(-c4cccc(B(O)O)c4)c3)CC2)c1` [T35F, 3′-(4-(5-(aminomethyl)-2-fluorophenyl)piperidine-1-carbonyl)biphenyl-3-ylboronic acid], the pIC50 is, setting by setting: under setting [1], 6.00 to 10.00; under setting [2], 6.00 to 10.00.

In the case of `N=C(N)c1ccc2c(c1)C1(CCN(C(=O)c3cccc(-c4cccc(B(O)O)c4)c3)CC1)CO2` [T35SPAM, 3′-(5-carbamimidoyl-2H-spiro[benzofuran-3,4′-piperidine]-1′-ylcarbonyl)biphenyl-3-ylboronic acid], under setting [2], the pIC50 is 6.00 to 10.00.

Consider `NCc1ccc2c(c1)C1(CCN(C(=O)c3cccc(-c4cccc(B(O)O)c4)c3)CC1)CO2` [T35SPIRO, 3′-(5-(aminomethyl)-2H-spiro[benzofuran-3,4′-piperidine]-1′-ylcarbonyl)biphenyl-3-ylboronic acid], for which the pIC50 under setting [1] was 5.00 to 6.00 and the pIC50 under setting [2] is 5.00 to 6.00.

For the compound `NCc1cccc(C2CCN(C(=O)c3ccc(-c4ccc5c(c4)COB5O)cc3)CC2)c1` [T36, (4-(3-(aminomethyl)phenyl)piperidin-1-yl)(4-(1-hydroxy-1,3-dihydrobenzo[c][1,2]oxaborol-5-yl)phenyl)methanone], the pIC50 is 5.00 to 6.00 under setting [1] and 5.00 to 6.00 under setting [2].

As to `NCc1cccc(C2CCN(C(=O)c3cccc(-c4ccc5c(c4)COB5O)c3)CC2)c1` [T36M, (4-(3-(aminomethyl)phenyl)piperidin-1-yl)(3-(1-hydroxy-1,3-dihydrobenzo[c][1,2]oxaborol-5-yl)phenyl)methanone], the pIC50 is 6.00 to 10.00 under setting [1] and 6.00 to 10.00 under setting [2].

For `NCc1cccc(C2CCN(C(=O)c3cccc4sc(B(O)O)cc34)CC2)c1` [T37, 4-(4-(3-(aminomethyl)phenyl)piperidine-1-carbonyl)benzo[b]thiophen-2-ylboronic acid], the pIC50 under setting [1] was 5.00 to 6.00 and the pIC50 under setting [2] was 5.00 to 6.00.

For `NCc1cccc(C2CCN(C(=O)c3cccc4sc(Br)cc34)CC2)c1` [T37A, (4-(3-(aminomethyl)phenyl)piperidin-1-yl)(2-bromobenzo[b]thiophen-4-yl)methanone], the pIC50 under setting [1] is 5.00 to 6.00.

`NCc1cccc(C2CCN(C(=O)/C=C/c3ccc(O)c(CO)c3)CC2)c1` [T40, (E)-1-(4-(3-(aminomethyl)phenyl)piperidin-1-yl)-3-(4-hydroxy-3-(hydroxymethyl)phenyl)prop-2-en-1-one]: the pIC50 under setting [1] is 5.00 to 6.00 and the pIC50 under setting [2] is 5.00 to 6.00.

As for `NCc1cccc(C2CCN(C(=O)/C=C/c3ccc(CO)c(O)c3)CC2)c1` [T41, (E)-1-(4-(3-(aminomethyl)phenyl)piperidin-1-yl)-3-(3-hydroxy-4-(hydroxymethyl)phenyl)prop-2-en-1-one], the negative logarithm of the IC50 (pIC50) runs as follows: under setting [1], 6.00 to 10.00; under setting [2], 6.00 to 10.00.

Take `NCc1cccc(C2CCN(C(=O)/C=C/c3ccc(C4CC4)c(O)c3)CC2)c1` [T41CYCLO, (E)-1-(4-(3-(aminomethyl)phenyl)piperidin-1-yl)-3-(4-cyclopropyl-3-hydroxyphenyl)prop-2-en-1-one]: the pIC50 under setting [1] is 6.00 to 10.00.

`CC(C)(O)c1ccc(/C=C/C(=O)N2CCC(c3cccc(CN)c3)CC2)cc1O` [T41GEM, (E)-1-(4-(3-(aminomethyl)phenyl)piperidin-1-yl)-3-(3-hydroxy-4-(2-hydroxypropan-2-yl)phenyl)prop-2-en-1-one]: the pIC50 under setting [1] was 6.00 to 10.00 and the pIC50 under setting [2] was 6.00 to 10.00.

As for `NCc1cccc(C2CCN(C(=O)/C=C/c3cccc(O)c3CO)CC2)c1` [T42], the pIC50 under setting [1] was 5.00 to 6.00 and the pIC50 under setting [2] is 5.00 to 6.00.
